# Data: patent US6469004B1, “Benzoheterocycles and their uses as MEK inhibitors” (Warner-Lambert Company, priority 1999, dated 2002)
# Counter-ions that a name gives are not always drawn. Like-named read-outs stand apart in the source and are kept apart here.
# Assays:
# [1] = test system: colon 26 cells; assay: colon 26 cells IC50 (whole cell assay); type: cell-based; details: Mus musculus
# Experimental: Whole Cell MAP Kinase Assay
# To determine if compounds block activation of MAP kinase in whole cells, the following protocol is used. Cells are plated in multi-well plates and grown to confluence. Cells are serum-deprived overnight. […] After a 5-minute treatment with the growth factor, cells are washed with PBS, and lysed in a buffer consisting of 70 mM NaCl, 10 mM HEPES (pH 7.4), 50 mM glycerol phosphate, and 1% Triton X-100. Lysates are clarified by centrifugation at 13,000×g for 10 minutes. Five to fifteen micrograms of protein from the resulting supernatants are subjected to SDS/PAGE and Western blotting for phosphorylated MAP kinase levels.
# [2] = target: GST-MEK (p45MEK) / GST-MAPK (p44MAP kinase) cascade (APK) (Homo sapiens, UniProt Q02750); assay: APK IC50 (cascade assay for inhibitors of the MAP kinase pathway); type: biochemical
# GST-MEK (p45MEK) / GST-MAPK (p44MAP kinase) cascade (APK), sequence (Q02750 whole entry): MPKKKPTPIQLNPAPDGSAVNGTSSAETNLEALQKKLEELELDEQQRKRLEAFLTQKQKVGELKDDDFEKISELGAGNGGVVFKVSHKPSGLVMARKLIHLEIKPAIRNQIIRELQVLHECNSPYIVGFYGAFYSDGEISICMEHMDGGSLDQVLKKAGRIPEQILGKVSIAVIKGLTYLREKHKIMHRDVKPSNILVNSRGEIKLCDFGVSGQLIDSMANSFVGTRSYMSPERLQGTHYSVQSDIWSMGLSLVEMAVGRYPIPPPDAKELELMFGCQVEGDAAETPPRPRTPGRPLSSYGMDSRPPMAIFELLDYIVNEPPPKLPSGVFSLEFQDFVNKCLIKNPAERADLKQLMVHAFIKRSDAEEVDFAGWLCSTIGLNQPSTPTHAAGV
# Experimental: Cascade Assay for Inhibitors of the MAP Kinase Pathway
# Incorporation of ^32P into myelin basic protein (MBP) is assayed in the presence of a glutathione S-transferase fusion protein containing p44MAP kinase (GST-MAPK) and a glutathione S-transferase fusion protein containing p45MEK (GST-MEK). The assay solution contains 20 mM HEPES, pH 7.4, 10 mM MgCl2, 1 mM EGTA, 50 μM [γ-^32P]ATP, 10 μg GST-MEK, 0.5 μg GST-MAPK and 40 μg MBP in a final volume of 100 μL. Reactions are stopped after 20 minutes by addition of trichloroacetic acid and filtered through a GFIC filter mat. ^32P retained on the filter mat is determined using a 120S Betaplate. Compounds are assessed at 10 μM for ability to inhibit incorporation of 32P.
# To ascertain whether compounds are inhibiting GST-MEK or GST MAPK, two additional protocols are employed. In the first protocol, compounds are added to tubes containing GST-MEK, followed by addition of GST-MAPK, MBP and [γ-^32P]ATP. In the second protocol, compounds are added to tubes containing both GST-MEK and GST-MAPK, followed by MBP and [γ-^32P]ATP.
# Compounds that show activity in both protocols are scored as MAPK inhibitors, while compounds showing activity in only the first protocol are scored as MEK inhibitors.
structure (smiles),measurement,setting,value
"Cc1cc(I)ccc1Nc1c(C(=O)NOCC2CC2)cc2nc[nH]c2c1F (as salt: salt) [PD 254552, 7-fluoro-6-(4-iodo-2-methyl-phenylamino)-1H-benzoimidazole-5-carboxylic acid cyclopropylmethoxy-amide]",melting point,,168 to 172 °C
"Cc1cc(I)ccc1Nc1c(C(=O)O)cc2nc[nH]c2c1F [PD 205293, 7-fluoro-6-(4-iodo-2-methyl-phenylamino)-1H-benzoimidazole-5-carboxylic acid]",IC50,"[1]; read-out: colon 26 cells, IC50",> 10000 nM
same,melting point,,247 to 248 °C (dec.)
"Cc1cc(I)ccc1Nc1c(C(=O)NOCC2CC2)cc2nc[nH]c2c1F [PD 254552, 7-fluoro-6-(4-iodo-2-methyl-phenylamino)-1H-benzoimidazole-5-carboxylic acid cyclopropylmethoxy-amide]",IC50,[2],< 10 nM
same,IC50,"[1]; read-out: Colon 26 Cells, 1 Hour Pretreatment, IC50",20 nM
"Cc1cc(I)ccc1Nc1c(C(=O)Oc2c(F)c(F)c(F)c(F)c2F)cc2nc[nH]c2c1F [PD 254551, 7-fluoro-6-(4-iodo-2-methyl-phenylamino)-1H-benzoimidazole-5-carboxylic acid pentafluorophenyl ester]",IC50,[2],120 nM
